For experiment [1], the target named is T1, PDK1 (Homo sapiens (Human), UniProt O15530). Description: PDK1 ATP Depletion Kinase Assay (Kinase-Glo luminescence). The class given is biochemical. To be noted: PDKtide substrate, read-out: PDK1 Kinase assays (IC50, μM) Activity Assay. How it is done: Test compounds were diluted to desired concentrations in kinase reaction buffer and briefly incubated with human recombinant PDK1 kinase which is histidine-tagged (Invitrogen Corporation, Carlsbad, Calif.). The reaction was subsequently initiated by the addition of ATP and PDKtide substrate (Millipore Corporation, Billerica, Massachussetts). […] After an incubation of 60 minutes at room temperature, 10 μl of the Kinase-Glo reagent (Promega Corporation, Madison, Wis.) was added to each well and incubated for an additional 10 minutes. Luminescence was measured on an EnVision microplate reader (PerkinElmer). The amount of luminescence from each reaction is inversely correlated with PDK1 kinase activity. Percent inhibition and IC50 values can be calculated by comparing enzyme activity in drug-treated wells to the appropriate controls, e.g. vehicle control.
(§1) IC50 values are determined using GraphPad Prism 5 software. The data were entered as an X-Y plot into the software as percent inhibition for each concentration of the drug. The concentration values of the drug were log transformed and the nonlinear regression was carried out using the “sigmoidal dose-response (variable slope)” option within the GraphPad software to model the data and calculate IC50 values.

Experiment [2] deals with T1, PDK1. The experiment can be described thus: Time resolved-FRET LanthaScreen Kinase Binding Assay. To be noted: TR-FRET Lanthascreen Kinase Binding Assay; read-out: PDK1 Kinase assays (IC50, μM) Binding Assay.
From the text: Binding of the tracer to the kinase is detected using a europium-labeled anti-tag antibody, which binds to the kinase of interest. […] Binding of an inhibitor to the kinase competes for binding with the tracer, resulting in a loss of FRET.
Activity of compounds was routinely assessed using a secondary assay as described herein. The secondary assay was a time resolved-FRET LanthaScreen Kinase Binding Assay (Invitrogen Corporation, Carlsbad, Calif.). This assay evaluates the ability of the test compound to compete with a fluorescently-labeled tracer molecule to bind in the ATP pocket of a kinase. The assay signal is generated when a Europium-conjugated anti-His tag antibody (Invitrogen) bound to the His-tagged kinase produces a TR-FRET signal with the tracer molecule bound in the ATP pocket of the kinase. […] After 60 minutes of incubation at room temperature, the TR-FRET signal was measured on an EnVision microplate reader.
as §1
For orientation: In TR-FRET formats the signal depends on donor and acceptor labels being close together.

The target in experiment [3] is T1, PDK1. Description: PDK1 fluorometric activity assay performed by Life Technologies. The note with it: fluorometric assay performed by Life Technologies (Table IV); read-out: PDK1 Kinase assays (IC50). The class given is biochemical. How it is done: PDK1 biochemical activity was measured by a fluorometric assay performed by Life Technologies (Grand Island, N.Y.). The assay conditions for PDK1 are as follows. The 2×PDK1/Ser/Thr-07 mixture is prepared in 50 mM Tris pH 8.5, 0.01% BRIJ-35, 10 mM MgCl2, 1 mM EGTA, 0.02% NaN3.
The kinase specificity was measured using fluorometric assays performed by Life Technologies (Grand Island, N.Y.). Assay conditions vary for each kinase and are available from Life Technologies, Grand Island, NY. For example, the assay conditions for PDK1 are as follows. The 2×PDK1/Ser/Thr-07 mixture is prepared in 50 mM Tris pH 8.5, 0.01% BRIJ-35, 10 mM MgCl2, 1 mM EGTA, 0.02% NaN3.

The next experiment deals with AN3-CA cells. The experiment can be described thus: Cell viability assay (ATP-lite). The class given is cell-based. To be noted: Homo sapiens; AN3-CA (PTEN and PIK3R1 mutations); read-out: Cell Viability IC50 AN3-CA. How it is done: (§2) AN3-CA (PTEN-deficient), RL95-2 (PTEN-deficient), and HEC-1A (PTEN-wild type) cells were plated in 45 μl of RPMI-1640 media supplemented with 10% FBS and 1% Pen/Strep at a density of 1000 cells per well in white 384-well plates. Cells were allowed to attach by incubation overnight at 37° C. and 5% CO2. Test compounds were diluted to 10× concentrations in RPMI-1640 media (containing 3% DMSO) and 5 μl 1 of these dilutions were added in triplicate to the appropriate wells containing the cells. The plates containing the drug-treated cells and appropriate controls were incubated for 96 hours. At the end of the incubation, 40 μl of ATP-lite (PerkinElmer, Inc., Waltham, Massachussetts) reagent were added to each well and luminescence signal was measured on an EnVision microplate reader.
Alternatively, AN3-CA, RL95-2, HEC-1A endometrial cancer cell lines were plated at a density of 2000 cells per well in a 96 well culture plate in 45 μl of cell culture media and incubated overnight. The following day, test compounds were added to the cells in 5 μl of serum-free media to generate final concentrations of 10, 3, 1, 0.3, 0.1, 0.03, 0.01, or 0.003 μM. Vehicle treated controls were also included and each condition was applied in quadruplicate. Following 96 hours of incubation, 35 μL of ATP-lite (PerkinElmer) reagent was added each well and allowed to react for 10 minutes. Plate was read on a Envision 2104 MultiLabel reader (PerkinElmer).
as §1

The next experiment concerns HEC-1A cells. Description: Cell viability assay (ATP-lite). The class given is cell-based. The note with it: Homo sapiens; HEC-1A (PTEN-wild type); read-out: Cell Viability IC50 HEC-1A. As for the experimental part:
as §2
(§3) Alternatively, AN3-CA, RL95-2, HEC-1A endometrial cancer cell lines were plated at a density of 2000 cells per well in a 96 well culture plate in 45 μl of cell culture media and incubated overnight. […] Vehicle treated controls were also included and each condition was applied in quadruplicate. Following 96 hours of incubation, 35 μL of ATP-lite (PerkinElmer) reagent was added each well and allowed to react for 10 minutes. Plate was read on a Envision 2104 MultiLabel reader (PerkinElmer).
as §1

For a further experiment, the system named is RL95-2 cells. The experiment can be described thus: Cell viability assay (ATP-lite). The class given is cell-based. To be noted: Homo sapiens; RL95-2 (PTEN mutation); read-out: Cell Viability IC50 RL95-2. As for the experimental part:
as §2, §3, §1

pIC50: −log10 of the molar value.

T1 sequence (O15530 whole entry): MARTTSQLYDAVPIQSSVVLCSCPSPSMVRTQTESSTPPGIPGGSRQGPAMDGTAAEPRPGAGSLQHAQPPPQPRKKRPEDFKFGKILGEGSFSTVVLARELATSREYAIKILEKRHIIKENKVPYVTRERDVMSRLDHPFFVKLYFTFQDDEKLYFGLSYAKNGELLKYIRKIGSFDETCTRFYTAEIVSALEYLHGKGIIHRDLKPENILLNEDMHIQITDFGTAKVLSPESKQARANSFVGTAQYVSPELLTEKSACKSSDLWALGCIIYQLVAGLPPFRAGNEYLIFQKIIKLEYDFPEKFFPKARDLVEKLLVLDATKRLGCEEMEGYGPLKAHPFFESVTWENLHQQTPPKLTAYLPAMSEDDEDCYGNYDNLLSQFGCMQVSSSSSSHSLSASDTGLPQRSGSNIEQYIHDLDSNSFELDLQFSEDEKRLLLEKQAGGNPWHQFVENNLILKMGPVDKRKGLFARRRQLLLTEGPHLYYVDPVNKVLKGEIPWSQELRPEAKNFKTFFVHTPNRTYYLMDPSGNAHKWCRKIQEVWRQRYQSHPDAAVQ

Take `O=C(Nc1cccc2[nH]nc(-c3nc4ccc(N5CCOCC5)cc4[nH]3)c12)C1CC1(F)F` (centres unmarked) [Compound 10]: the IC50 (usually the concentration that inhibits the measured activity by half) at PDK1 [1] was found to be 4.4 µM; on PDK1 [2] it was 0.385 µM. For the same compound, the pIC50 (usually the negative decadic logarithm of the IC50, by convention in mol/L) at PDK1 [3] is 6.41.
Taken in the same sequence, the figures for `O=C(Nc1ccc2[nH]nc(-c3nc4ccccc4[nH]3)c2c1)C1CC1` [Compound 7] were 1.74 µM, 1.23 µM and 5.91.
As to `O=C(Nc1ccc2[nH]nc(-c3nc4ccccc4[nH]3)c2c1)NC1CC1` [Compound 12], the values for the IC50 at PDK1 [1] and on PDK1 [2] were 11.6 µM and 0.92 µM, respectively. Moreover, the pIC50 on PDK1 [3] was 6.04; in the experiment on AN3-CA cells, 4.74; in the experiment on HEC-1A cells it was 4.90; in the experiment with RL95-2 cells, 4.77.
With `CN1CCC(C)(C(=O)Nc2ccc3[nH]nc(-c4nc5ccccc5[nH]4)c3c2)CC1` [Compound 18], on PDK1 [1], the half-inhibitory concentration (IC50) is over 100 µM. Besides, the pIC50 in the experiment on AN3-CA cells was 4.81; in the experiment on HEC-1A cells, 4.25; in the experiment on RL95-2 cells, 5.20.
Take `CS(=O)(=O)c1cccc(-c2ccc3[nH]nc(-c4nc5ccccc5[nH]4)c3c2)c1` [Compound 14]: the IC50 was 23.7 µM at PDK1 [1] and 15.3 µM at PDK1 [2]. In addition, the pIC50 on PDK1 [3] was 4.82; in the experiment with AN3-CA cells, 5.00; with HEC-1A cells it was 4.70; in the experiment on RL95-2 cells, 4.45.
For the compound `FC(F)(F)c1cccc(-c2ccc3[nH]nc(-c4nc5ccccc5[nH]4)c3c2)c1` [Compound 15], the IC50 at PDK1 [1] came to 55.7 µM; at PDK1 [2], 30.3 µM. In addition, at PDK1 [3], the pIC50 is 4.52.
As to `CC(C)(C#N)c1ccc(-c2ccc3[nH]nc(-c4nc5ccccc5[nH]4)c3c2)cc1` [Compound 16], the figures for the IC50 at PDK1 [1] and on PDK1 [2] were 58.5 µM and 5.17 µM, respectively. The pIC50 on PDK1 [3] was 5.28; with AN3-CA cells, 4.10; in the experiment on HEC-1A cells, 4.54; in the experiment on RL95-2 cells, 4.82.
In the case of `O=C(Nc1ccc2[nH]nc(-c3nc4cc(N5CCOCC5)ccc4[nH]3)c2c1)C1CCC(F)(F)CC1` [Compound 4], the IC50 was 0.304 µM on PDK1 [1] and 0.265 µM at PDK1 [2]. At PDK1 [3], the pIC50 was 6.58.
Turning to `O=C(Nc1ccc2[nH]nc(-c3nc4cc(CN5CCOCC5)ccc4[nH]3)c2c1)C1CC1(F)F` (centres unmarked) [Compound 9], the figures for the IC50 at PDK1 [1] and on PDK1 [2] were 3.75 µM and 1.22 µM, respectively. Also, the pIC50 at PDK1 [3] was 5.91; with AN3-CA cells it was 6.35; in the experiment on HEC-1A cells, 4.74; with RL95-2 cells it was 5.49.
In the case of `O=C(Nc1ccc2[nH]nc(-c3nc4ccccc4[nH]3)c2c1)C1CCN(c2ccncc2)CC1` [Compound 20], the IC50 on PDK1 [1] and on PDK1 [2] was over 100 µM each time.
`O=C(Nc1ccc2c(-c3nc4ccc(N5CCOCC5)cc4[nH]3)n[nH]c2c1)C1CC1(F)F` (centres unmarked) [Compound 21]: the IC50 at PDK1 [1] and on PDK1 [2] was over 100 µM throughout.
On to `Brc1ccc2[nH]nc(-c3nc4ccccc4[nH]3)c2c1` [Compound 11], for which the IC50 at PDK1 [1] is 10.9 µM. Further, the pIC50 with AN3-CA cells was 4.92; in the experiment with HEC-1A cells it was 4.53; in the experiment with RL95-2 cells it was 4.94.
For the compound `O=C(Nc1ccc2[nH]nc(-c3nc4ccccc4[nH]3)c2c1)Nc1ccc(F)cc1F` [Compound 17], the IC50 at PDK1 [1] and at PDK1 [2] was over 100 µM in each case.
With `CC1CCN(c2ccc3[nH]c(-c4n[nH]c5ccc(NC(=O)C6CC6(F)F)cc45)nc3c2)CC1` (centres unmarked) [Compound 5], at PDK1 [1], the half-inhibitory concentration (IC50) was determined as 0.78 µM. The pIC50 at PDK1 [3] is 6.11.
As for `O=C(Nc1ccc2[nH]nc(-c3nc4ccccc4[nH]3)c2c1)c1cccc(F)c1` [Compound 13], the IC50 at PDK1 [1] is 21.1 µM; at PDK1 [2], 8.79 µM. In addition, the pIC50 is 5.06 on PDK1 [3], 4.62 with AN3-CA cells, 4.29 in the experiment with HEC-1A cells and 4.82 in the experiment with RL95-2 cells.
For `O=C(Nc1ccc2[nH]nc(-c3nc4ccccc4[nH]3)c2c1)C1CCC(F)(F)CC1` [Compound 6], the results for the IC50 at PDK1 [1] and on PDK1 [2] were 1.5 µM and 0.41 µM, respectively. Further, the pIC50 was 6.39 at PDK1 [3], 5.68 with AN3-CA cells, 5.02 in the experiment on HEC-1A cells and 5.64 with RL95-2 cells.
As for `O=C(Nc1ccc2[nH]nc(-c3nc4ccccc4[nH]3)c2c1)C1CC1(F)F` (centres unmarked) [Compound 8], the IC50 worked out at 1.94 µM at PDK1 [1] and 0.28 µM at PDK1 [2]. Also, the pIC50 on PDK1 [3] was 6.55; in the experiment on AN3-CA cells, 6.48; in the experiment with HEC-1A cells, 4.83; in the experiment on RL95-2 cells, 5.16.
As for `O=C(Nc1ccc2[nH]nc(-c3nc4ccccc4[nH]3)c2c1)NC1CCCC1` [Compound 19], the IC50 on PDK1 [1] was over 100 µM.
With `O=C(Nc1ccc2[nH]nc(-c3nc4cc(N5CCOCC5)ccc4[nH]3)c2c1)C1CC1` [Compound 3], the figures for the IC50 at PDK1 [1] and on PDK1 [2] were 0.283 µM and 0.229 µM, respectively. Also, the negative-log IC50 (pIC50) on PDK1 [3] was 6.64.

Source of the values: patent publication US8569511B2, “Substituted 3-(1H-benzo[d]imidazol-2-yl)-1H-indazole analogs as inhibitors of the PDK1 kinase” (University of Utah Research Foundation, priority 2011, dated 2013).
